# Laboratory results as given in patent publication US20070208040A1, “A2A ADENOSINE RECEPTOR ANTAGONISTS” (priority 2006, published 2007).
# Biological target: A2A adenosine receptor (UniProt P29274)
# Experiment: A2A radioligand binding assay (displacement of 3H-MSX-2)
# Design: species or system human
# Settings: displacement of 2 nM 3H-MSX-2 from 15 ug A2A membrane, 23° C., 2 hours
# Source text: A tritiated adenosine A2A antagonist, 3-(3-hydroxypropyl)-7-methyl-8-(m-methoxystyryl)-1-propargylxanthine, (3H-MSX-2, specific activity: 80 Ci/mmol), was purchased from American Radiolabeled Chemicals, Inc (St. Louis, Mo.). A tritiated adenosine A1 antagonist, 1,3-Dipropyl-8-cyclopentylxanthine ([^3H]DPCPX, specific activity: 120 Ci/mmol) was purchased from Perkin Elmer (Boston, Mass.). A tritiated adenosine A2a antagonist, 4-(2-[7-amino-2-(2-furyl)[1,2,4]triazolo[2,3-a][1,3,5]triazin-5-ylamino]ethyl)phenol ([^3H]ZM241385 specific activity: 27.4 Ci/mmol) was purchased from American Radiolabeled Chemicals, Inc (St. Louis, Mo.). Adenosine Deaminase (ADA) was purchased from Roche Molecular Biochemicals (Nutley, N.J.). GTP was purchased from Sigma. Concentrated stock solution (10 mM) of compounds was dissolved in dimethylsulfoxide (DMSO), stored at −20° C., and diluted in Tris-EDTA buffer (50 mM Tris and 1 mM EDTA, 10 mM MgCl2, pH 7.4) for use in experiments. The final content of dimethylsulfoxide in Tris-EDTA buffer during experiments was not more than 1%. Male Sprague Dawley rats, weighted 250-400 g, 8-10 weeks old, were purchased from Charles River Labs (Wilmington, Mass.).
# HEK293 (Human Embryonic Kidney 293) cells stably expressing human A2A adenosine receptor or human A2B adenosine receptor were maintained in DMEM supplemented with 10% fetal bovine serum, 2 mM L-glutamine, 100 IU/ml penicillin, 50 μg/ml streptomycin and 2 μg/ml puromycin. CHO (Chinese Hamster Ovary) cells stably expressing human A1 adenosine receptor or human A3 adenosine receptor were maintained in F12K medium supplemented with 10% fetal bovine serum, 2 mM L-glutamine, 100 IU penicillin, 50 μg streptomycin and 8 μg/ml puromycin. PC12 (rat pheochromocytoma) cells were cultured in F12K medium supplemented with 10% horse serum and 2.5% fetal bovine serum, 2 mM L-glutamine, 100 IU/ml penicillin, and 50 μg/ml streptomycin. All cells were maintained at 37° C. in a humidified 5% CO2/95% air incubator and recultivated 2 times per week.
# Cultured cells in 150 mm^2 dishes were washed once with PBS, detached by scrapping, collected with buffer A (10 mM HEPES, 10 mM EDTA, pH 7.4) containing protease inhibitor cocktail. Cells were then homogenized by a handheld homogenizer at a speed of 4.5 for 1 min. The homogenate was centrifuged by a Beckman ultracentrifuge at a speed of 29,000 × g for 15 min. The pellets were resuspended in buffer HE (10 mM HEPES, 1 mM EDTA, pH 7.4, with protease inhibitor cocktail), centrifuged again at 29,000 × g for 15 min. The crude membrane was resuspended using buffer HE, and protein concentration was measured by the method of Lowery with BSA as standard. Similar procedures were used for membrane preparation for fresh rat tissues. All experimental procedures were done at 4° C. Membranes were aliquot and kept at −80° C.
# The binding assays utilized 15 ug of A2A membrane (human recombinant A2A membrane, rat striatal membrane, or PC 12 cell membrane) that had been treated with adenosine deaminase and 50 mM Tris-EDTA buffer (pH=7.4) followed by mixing 2 μL of serially diluted DMSO stock solution of the compounds of this invention at concentrations ranging from 10 μM to 0.1 nM or the control received 2 μL of DMSO alone, then the tritiated antagonist 3-(3-hydroxypropyl)-7-methyl-8-(m-methoxystyryl)-1-propargylxanthine (^3H-MSX-2) in Tris-EDTA buffer (50 mM Tris, 1 mM EDTA, 10 mM MgCl2, pH of 7.4) was added to achieve a final concentration of 2 nM. After incubation at 23° C. for 2 hours, the solutions were filtered using a membrane harvester with multiple washing of the membranes (3×). The filter plates were counted in scintillation cocktail affording the amount of displacement ^3H-MSX-2 by the competitive binding compositions of this invention. Radioligand binding data was analyzed using GraphPad Prism version 4.0 (San Diego, Calif.). […]
row,Ki [nM],SMILES
1,896,"CCn1c(=O)c2c(-c3ccc(C)o3)csc2n(C)c1=O [XXII, 3-ethyl-1-methyl-5-(5-methyl(2-furyl))-1,3-dihydrothiopheno[2,3-d]pyrimidine-2,4-dione]"
2,230,"CCn1c(=O)[nH]c2scc(-c3ccc(C)o3)c2c1=O [XXI, 3-ethyl-5-(5-methyl(2-furyl))-1,3-dihydrothiopheno[2,3-d]pyrimidine-2,4-dione]"
3,58,"CC[C@H]1COC(c2sc3[nH]c(=O)n(CC(C)C)c(=O)c3c2C)=N1 [LVI, 6-((4S)-4-ethyl(1,3-oxazolin-2-yl))-5-methyl-3-(2-methylpropyl)-1,3-dihydrothiopheno[2,3-d]pyrimidine-2,4-dione]"
4,699,"CCn1c(=O)[nH]c2sc(C)c(C)c2c1=O [XVI, 3-ethyl-5,6-dimethyl-1,3-dihydrothiopheno[2,3-d]pyrimidine-2,4-dione]"
5,300,"C#CCn1c(=O)[nH]c2sc(C(=O)OCC)c(C)c2c1=O [XXV, ethyl 5-methyl-2,4-dioxo-3-prop-2-ynyl-1,3-dihydrothiopheno[2,3-d]pyrimidine-6-carboxylate]"
6,49,"C#CCn1c(=O)c2c(C)c(C(=O)OCC)sc2n(C)c1=O [XXVI, ethyl 1,5-dimethyl-2,4-dioxo-3-prop-2-ynyl-1,3-dihydrothiopheno[2,3-d]pyrimidine-6-carboxylate]"
7,165,"Cc1c(-c2cocn2)sc2c1c(=O)n(CC(C)C)c(=O)n2C [XXIV, 1,5-dimethyl-3-(2-propylmethyl)-6-(1,3-oxazol-4-yl)-1,3-dihydrothiopheno[1,3-d]pyrimidine-2,4-dione]"
8,158,"Cc1c(-c2ccoc2)sc2[nH]c(=O)n(CC(C)C)c(=O)c12 [XXX, 6-(3-furyl)-5-methyl-3-(2-methylpropyl)-1,3-dihydrothiopheno[2,3-d]pyrimidine-2,4-dione]"
9,805,"CCn1c(=O)[nH]c2sc(-c3nc(Cc4ccccc4)no3)c(C)c2c1=O [XX, 3-ethyl-5-methyl-6-[3-benzyl(1,2,4-oxadiazol-5-yl)]-1,3-dihydrothiopheno[2,3-d]pyrimidine-2,4-dione]"
10,150,"Cc1c(-c2cccs2)sc2[nH]c(=O)n(C)c(=O)c12 [XXXIII, 3,5-dimethyl-6-(2-thienyl)-1,3-dihydrothiopheno[2,3-d]pyrimidine-2,4-dione]"
11,347,"Cc1c(-c2ncco2)sc2c1c(=O)n(CC(C)C)c(=O)n2C [XL, 1,5-dimethyl-3-(2-methylpropyl)-6-(1,3-oxazol-2-yl)-1,3-dihydrothiopheno[2,3-d]pyrimidine-2,4-dione]"
12,76,"Cc1c(-c2ccco2)sc2[nH]c(=O)n(CC(C)C)c(=O)c12 [Example I, 6-(2-furyl)-5-methyl-3-(2-methylpropyl)-1,3-dihydrothiopheno[2,3-d]pyrimidine-2,4-dione]"
13,406,"CCn1c(=O)[nH]c2sc(-c3ccc(OC)nc3)c(C)c2c1=O [LIV, 3-ethyl-6-(6-methoxy(3-pyridyl))-5-methyl-1,3-dihydrothiopheno[2,3-d]pyrimidine-2,4-dione]"
14,152,"CCn1c(=O)[nH]c2sc(C3=NCCO3)c(C)c2c1=O [VII, 3-ethyl-5-methyl-6-(1,3-oxazolin-2-yl)-1,3-dihydrothiopheno[2,3-d]pyrimidine-2,4-dione]"

# Further lines, the molecule ahead of its results:
row,SMILES,Ki [nM]
1,"CCn1c(=O)c2c(C)c(-c3ccco3)sc2n(C)c1=O [XXXIX, 3-ethyl-6-(2-furyl)-1,5-dimethyl-1,3-dihydrothiopheno[2,3-d]pyrimidine-2,4-dione]",250
2,"CCn1c(=O)[nH]c2sc(-c3ccoc3)c(C)c2c1=O [II, 3-ethyl-6-(3-furyl)-5-methyl-1,3-dihydrothiopheno[2,3-d]pyrimidine-2,4-dione]",88
3,"Cc1c(-c2ccco2)sc2[nH]c(=O)n(C)c(=O)c12 [XXXIV, 6-(2-furyl)-3,5-dimethyl-1,3-dihydrothiopheno[2,3-d]pyrimidine-2,4-dione]",110
4,"CCn1c(=O)[nH]c2sc(C(=O)N[C@H](C)CO)c(C)c2c1=O [XLII, N—((1R)-2-hydroxy-isopropyl)(3-ethyl-5-methyl-2,4-dioxo(1,3-dihydrothiopheno[2,3-d]pyrimidin-6-yl))carboxamide]",769
5,"CC[C@H]1COC(c2sc3c(c2C)c(=O)n(CC(C)C)c(=O)n3C)=N1 [LVIII, 6-((4S)-4-ethyl(1,3-oxazolin-2-yl))-1,5-dimethyl-3-(2-methylpropyl)-1,3-dihydrothiopheno[2,3-d]pyrimidine-2,4-dione]",119
6,"CCn1c(=O)[nH]c2sc(C3=N[C@@H](C)CO3)c(C)c2c1=O [XLIII, 6-((4S)-4-methyl(1,3-oxazolin-2-yl))-3-ethyl-5-methyl-1,3-dihydrothiopheno[2,3-d]pyrimidine-2,4-dione]",93
7,"CCn1c(=O)[nH]c2sc(-c3sccc3C)c(C)c2c1=O [XXXII, 3-ethyl-5-methyl-6-(3-methyl(2-thienyl))-1,3-dihydrothiopheno[2,3-d]pyrimidine-2,4-dione]",110
8,"CCn1c(=O)[nH]c2sc(-c3cnn(Cc4ccccc4)c3)c(C)c2c1=O [XVIII, 3-ethyl-5-methyl-6-[1-benzylpyrazol-4-yl]-1,3-dihydrothiopheno[2,3-d]pyrimidine-2,4-dione]",752
9,"Cc1c(C2=NCCO2)sc2[nH]c(=O)n(CC(C)C)c(=O)c12 [XXVIII, 5-methyl-3-(2-methylpropyl)-6-(1,3-oxazolin-2-yl)-1,3-dihydrothiopheno[2,3-d]pyrimidine-2,4-dione]",137
10,"CCCn1c(=O)[nH]c2sc(C3=N[C@@H](C)CO3)c(C)c2c1=O [XLV, 6-((4S)-4-methyl(1,3-oxazolin-2-yl))-5-methyl-3-propyl-1,3-dihydrothiopheno[2,3-d]pyrimidine-2,4-dione]",95
11,"Cc1c(C2=NC[C@@H](C)O2)sc2c1c(=O)n(CC(C)C)c(=O)n2C [LIX, 6-((5R)-5-methyl(1,3-oxazolin-2-yl))-1,5-dimethyl-3-(2-methylpropyl)-1,3-dihydrothiopheno[2,3-d]pyrimidine-2,4-dione]",450
